Structures are written as SMILES.

One assay has as its target c-MET (Homo sapiens, UniProt P08581). The experiment in a line: MET luminescence-based enzyme assay (Kinase-Glo). Format: biochemical. The method, then:
The subscript designates positive or negative controls. The Z′ score for a robust screening assay should be ≧0.50. The typical threshold=μ+−3*σ+. Any value that falls below the threshold was designated a “hit”.
MET Luminescence-Based Enzyme Assay
MET kinase (see below), Kinase-Glo™ (Promega Cat#V6712).
Negative controls contained 10 μM staurosporine.
(In general: In Kinase-Glo more light means more ATP remaining.)

The next assay has as its target T1, TPR-MET Ba/F3 cells (Homo sapiens, UniProt P08581).
T1 construct: TPR-MET Ba/F3 cells were created by stably transducing the human TPR-MET gene into Ba/F3 cells using a retroviral system; fused on or other part: P12270 (Nucleoprotein TPR)
The experiment in a line: 96-well XTT cell survival assay (Ba/F3 cells). It is filed as cell-based. To be noted: cells marked (BaF3), 72 hours; read-out: XTT Assay IC50 (BaF3). The method, then: TPR-MET Ba/F3 cells were created by stably transducing the human TPR-MET gene into Ba/F3 cells using a retroviral system. All cell lines were grown in RPMI-1640 supplemented with 1× penicillin/streptomycin and 10% fetal bovine (Invitrogen, Carlsbad, Calif.). The cells were maintained in a 5% CO2 humidified incubator at 37° C.
Compounds were tested in the following assays in duplicate.
96-well XTT assay (Ba/F3 cells): Cells were grown in growth media containing various concentrations of compounds (duplicates) on a 96-well plate for 72 hours at 37° C. The starting cell number was 5000-8000 cells per well and volume was 120 μl. At the end of the 72-hour incubation, 40 μl of XTT labeling mixture (50:1 solution of sodium 3′-[1-(phenylamino-carbonyl)-3,4-tetrazolium]-bis(4-methoxy-6-nitro) benzene sulfonic acid hydrate and Electron-coupling reagent: PMS (N-methyl dibenzopyrazine methyl sulfate) were added to each well of the plate. After an additional 2-6 hours of incubation at 37° C., the absorbance reading at 405 nm with background correction at 650 nm was measured with a spectrophotometer.
For orientation: Tetrazolium dyes change colour on reduction, which living cells bring about.

T1 sequence (P08581 whole entry, change not shown, the tested form may be a part): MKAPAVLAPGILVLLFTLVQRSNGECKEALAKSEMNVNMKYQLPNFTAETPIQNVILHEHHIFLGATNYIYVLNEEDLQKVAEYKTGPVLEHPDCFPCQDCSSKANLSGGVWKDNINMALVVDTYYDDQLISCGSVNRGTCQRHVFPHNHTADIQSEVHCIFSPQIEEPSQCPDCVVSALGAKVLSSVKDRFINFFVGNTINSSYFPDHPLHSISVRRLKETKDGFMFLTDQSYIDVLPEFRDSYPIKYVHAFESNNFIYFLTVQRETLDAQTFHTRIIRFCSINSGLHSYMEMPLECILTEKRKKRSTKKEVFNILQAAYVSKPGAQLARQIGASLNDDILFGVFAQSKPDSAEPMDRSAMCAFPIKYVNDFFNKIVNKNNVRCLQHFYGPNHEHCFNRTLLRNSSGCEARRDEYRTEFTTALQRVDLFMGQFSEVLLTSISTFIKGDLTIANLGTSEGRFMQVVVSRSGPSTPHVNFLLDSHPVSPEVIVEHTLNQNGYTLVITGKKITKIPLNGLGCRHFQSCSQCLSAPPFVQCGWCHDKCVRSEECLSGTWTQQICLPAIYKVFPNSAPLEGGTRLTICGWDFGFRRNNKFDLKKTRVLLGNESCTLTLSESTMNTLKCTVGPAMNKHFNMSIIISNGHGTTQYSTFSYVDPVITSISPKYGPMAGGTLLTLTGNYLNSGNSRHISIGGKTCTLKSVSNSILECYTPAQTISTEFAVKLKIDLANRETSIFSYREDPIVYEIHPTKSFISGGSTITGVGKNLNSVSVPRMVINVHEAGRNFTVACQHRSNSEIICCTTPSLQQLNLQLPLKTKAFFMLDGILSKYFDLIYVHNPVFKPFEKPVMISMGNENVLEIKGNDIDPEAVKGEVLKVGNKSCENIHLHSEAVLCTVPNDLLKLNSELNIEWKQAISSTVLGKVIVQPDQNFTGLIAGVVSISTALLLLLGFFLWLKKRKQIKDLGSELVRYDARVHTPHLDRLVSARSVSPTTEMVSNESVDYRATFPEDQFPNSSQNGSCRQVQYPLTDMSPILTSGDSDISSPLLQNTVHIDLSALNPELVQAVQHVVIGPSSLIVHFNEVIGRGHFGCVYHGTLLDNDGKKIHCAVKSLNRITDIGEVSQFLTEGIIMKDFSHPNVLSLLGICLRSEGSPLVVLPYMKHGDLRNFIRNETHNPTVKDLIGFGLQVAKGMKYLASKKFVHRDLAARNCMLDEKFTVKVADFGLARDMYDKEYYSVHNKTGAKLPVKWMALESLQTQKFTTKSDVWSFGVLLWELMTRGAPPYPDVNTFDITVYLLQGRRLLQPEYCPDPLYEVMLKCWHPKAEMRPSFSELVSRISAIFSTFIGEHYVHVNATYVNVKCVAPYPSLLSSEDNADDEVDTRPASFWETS
c-MET, sequence (P08581 1078-1345 limits assumed): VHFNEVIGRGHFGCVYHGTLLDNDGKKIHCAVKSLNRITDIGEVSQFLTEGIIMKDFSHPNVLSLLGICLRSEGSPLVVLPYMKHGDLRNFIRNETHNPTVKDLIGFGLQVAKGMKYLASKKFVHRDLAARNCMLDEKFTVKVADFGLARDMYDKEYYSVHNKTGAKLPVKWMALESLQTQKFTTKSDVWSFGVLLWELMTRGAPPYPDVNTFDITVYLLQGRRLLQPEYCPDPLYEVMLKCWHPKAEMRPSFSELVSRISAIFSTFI

As a reminder, the IC50 is the concentration at which inhibition is half-maximal. Lower therefore signals greater potency. For `N#Cc1cccc(-c2ccc3nnc(Sc4ccc5ncsc5c4)n3n2)c1` [Compound 22, 3-[3-(Benzothiazol-6-ylsulfanyl)-[1,2,4]triazolo[4,3-b]pyridazin-6-yl]-benzonitrile], the IC50 against c-MET was below 100 nM. Moreover, at TPR-MET Ba/F3 cells, the GI50 fell in the range of 100 to 1000 nM.
Taken in the same sequence, the figures for `CNC(=O)c1ccc(-c2ccc3nnc(Sc4cc5scnc5cc4F)n3n2)cc1F` [Compound 20] were below 100 nM and at most 100 nM.
Taken in the same sequence, the figures for `CNC(=O)c1ccc(-c2ccc3nnc(Sc4ccc5ncn(C)c5c4)n3n2)cc1F` [Compound 19, 2-Fluoro-N-methyl-4-[3-(3-methyl-3H-benzoimidazol-5-ylsulfanyl)-[1,2,4]triazolo[4,3-b]pyridazin-6-yl]-benzamide] were below 100 nM and at most 100 nM.
The like results for `N#Cc1cccc(-c2ccc3nnc(Sc4cc5cccnc5cc4F)n3n2)c1` [Compound 23, 3-[3-(7-Fluoro-quinolin-6-ylsulfanyl)-[1,2,4]triazolo[4,3-b]pyridazin-6-yl]-benzonitrile] were, in that order, below 100 nM and at most 100 nM.
For `N#Cc1cccc(-c2ccc3nnc(Sc4ccc5ncccc5c4)n3n2)c1` [Compound 21, 3-[3-(Quinolin-6-ylsulfanyl)-[1,2,4]triazolo[4,3-b]pyridazin-6-yl]-benzonitrile], the IC50 against c-MET was below 100 nM. The GI50 at TPR-MET Ba/F3 cells is at most 100 nM.

These data come from patent publication US8507489B2, “Bicyclic triazoles as protein kinase modulators” (SGX Pharmaceuticals, Inc., priority 2006, dated 2013).
